Measurements taken from patent publication US5369112A, “Method of treating cataracts caused by active oxygen” (Mitsubishi Gas Chemical Company, Inc., priority 1991, dated 1994).
Where two headings read alike, the source gives them in different places.

Experiments:
male mice SPF-ICR [1] = assay: Acute toxicity test (1), intraperitoneal; conditions: mouse, in vivo
Protocol: To male mice SPF-ICR five weeks old (supplied by Japan Charles River Co.) were intraperitoneally administered PQQ·2Na, PQQ trimethyl ester, PQQ triallyl ester, OPQ, 1-methylpropyl OPQ, 2-methylthioethyl OPQ and benzyl OPQ at dosages of 40, 80, 160 and 200 mg per kg of body weight of mouce, respectively and they were bred for 14 days at 25° C. One group consisted of 8 mice. For administration, PQQ·2Na and OPQ and esters thereof were dissolved in physiological saline and PQQ trimethyl ester and PQQ triallyl ester were suspended in 1% Tween 80-containing physiological saline, respectively.

mice [2] = conditions: mouse, in vivo, ip
Protocol: One group consisted of 8 mice. For administration, PQQ·2Na and OPQ and esters thereof were dissolved in physiological saline and PQQ trimethyl ester and PQQ triallyl ester were suspended in 1% Tween 80-containing physiological saline, respectively.
PQQ·2Na, PQQ trimethyl ester, PQQ triallyl ester and OPQ and esters thereof were intraperitoneally administered to mice and they were bred in the same manner as in the above acute toxicity test. Urine of the mice was taken every day and glucose concentration was measured using clinical examination reagent (trademark: […] 2 manufactured by Miles.Sankyo Co.).

male mice SPF-ICR [3] = assay: Acute Toxicity Test (2), intraperitoneal; format: in vivo; conditions: 8 mice per group, 14 days
Protocol: (§1) To male mice SPF-ICR five weeks old (supplied by Japan Charles River Co.) were intraperitoneally administered PQQ triallyl ester at dosages of 40, 80, 160, 200, 400 and 800 mg per kg of body weight of mouse, respectively and they were bred for 14 days at 25° C. One group consisted of 8 mice. For administration, PQQ triallyl ester was suspended in 1% Tween 80-containing physiological saline.

[4] = Acute Toxicity Test (2), intraperitoneal; format: in vivo; conditions: mouse, in vivo, ip
Protocol: as §1

[5] = not told; for Membrane permeation constant: bovine, 960 min
Protocol: Permeability of various compounds through capsule of crystal bovine lens was examined in accordance with the method mentioned in "Crystal Lens and Biochemical Mechanism thereof" (pages 436-440) edited by Shuzo Iwata (Medical Aoi Publisher). Each compound dissolved in 10 mM HEPES buffer (containing 1% DMSO in the case of PQQ triesters) was put in an apparatus for measurement of membrane permeation constant and left to stand for 16 hours at 35° C. and then amount of the compound which migrated was measured by ultraviolet absorption (243 nm for PQQ·2Na and 255 nm for PQQ esters) to obtain membrane permeation constant.

[6] = Hydroxy radical scavenging activity (H2O2-(Fe^2+-DTPA), DMPO spin trapping, ESR); format: biochemical; conditions: pH 7.3, read-out: .OH scavenging activity IC50
From the text: Activity of PQQ esters to scavenge hydroxy radical (·OH) produced in the system of H2 O2 --(Fe^2+ -DTPA) was examined by spin trapping method [using 5,5-dimethyl-1-pyrroline-N-oxide (hereinafter referred to as "DMPO") as a spin trapping agent] where electron spin resonance (hereinafter referred to as "ESR") was used. DTPA means diethylenetriamine-pentaacetic acid.
H2 O2 +Fe^2 -DTPA complex→·OH+OH^-
The following reagents were successively put in a test tube and stirred after addition of H2 O2 6 to initiate the reaction and the reaction mixture was transferred to a quartz cell used for measurement of ESR.
Hydroxy radical scavenging activity of OPQ and esters thereof was examined in the same manner as in Example 3.

[7] = system: Hydrocortisone-Induced Cataract of Hen's Eggs; assay: Effect on hydrocortisone-induced cataract of hen's eggs; format: in vivo, white leghorn (hen's eggs); conditions: 1 μmole at 3, 10 and 20 h after hydrocortisone; lens at 48 h
Protocol: Fertilized eggs of white leghorn were incubated in an incubator at a temperature of 37° C. and 70% in humidity. The day on which the incubation was started was taken to be one day old. […] eggs of 15 day old were prepared and divided into 7 groups, each of which included 5 eggs (A-G). A small hole was bored through the eggshell above air chamber of the eggs of groups B-G and 0.25 μmole (as 0.2 ml solution) of hydrocortisone sodium succinate was administered into the air chamber through the hole and then, the hole was sealed with a cellophane tape. To The eggs of groups C-G was administered 1 μmole of following compounds after 3, 10 and 20 hours from administration of hydrocortisone sodium succinate. That is, 0.2 ml of a solution of PQQ·2Na in distilled water was administered to the eggs of group C, 0.2 ml of a suspension of PQQ trimethyl ester in 1% Tween 80 solution was administered to the eggs of group D, 0.2 ml of a suspension of triallyl ester in 1% Tween 80 solution was administered to the eggs of group E, 0.2 ml of a solution of OPQ in 10 mM NaCO3 solution was administered to the eggs of group F, and 0.2 ml of a solution of methyl OPQ in 10 mM NaCO3 solution was administered to the eggs of group G.
Crystal lens was taken out after 48 hours from administration of hydrocortisone sodium succinate and degree of cataract was judged by the criteria according to the Nishigori et al method (Nishigori et al, "Investigative Ophthalmology & Visual Science", Vol. 25, page 1051, 1984).
5 The whole nucleus was hazed in white.

mice [8] = assay: Kidney Toxicity Determined by Blood Examination (1); format: in vivo; conditions: for Creatinine / Glucose / Urea nitrogen: mouse serum
Protocol: (§2) After lapse of one day from the administration, the mice were fasted (with feeding only water) and then after 18 hours, blood was collected and serum was obtained therefrom. Glucose, urea nitrogen and creatinine in the serum were examined by clinical examination reagent (trademark: FUJI DRYCHEMSLIDE manufactured by Fuji Photo Film Co., Ltd.).

[9] = Superoxide scavenging activity (hypoxanthine-xanthine oxidase, DMPO spin trapping, ESR); format: biochemical; conditions: pH 7.3, read-out: O2^- scavenging activity IC50
From the text: Activity of PQQ esters to scavenge superoxide (O2^-) produced in the system of hypoxanthinexanthine oxidase was examined by spin trapping method [using 5,5-dimethyl-l-pyrroline-N-oxide (hereinafter referred to as "DMPO") as a spin trapping agent] where electron spin resonance (hereinafter referred to as "ESR") was used.
Hypoxanthine+2O2 →2O2^- +uric acid (xanthine oxidase)
The following reagents were successively put in a test tube and stirred after addition of the hypoxanthine 7 to initiate the reaction and the reaction mixture was transferred to a quartz cell used for measurement of ESR.
Superoxide scavenging activity of OPQ and esters thereof was examined in the same manner as in Example 1.

mice [10] = assay: Kidney Toxicity Determined by Blood Examination (2); format: in vivo; conditions: for Creatinine / Glucose / Urea nitrogen: mouse serum
Protocol: Dosages were 150, 400 and 1000 mg per kg of body weight of mouse.
as §2, with “15” for “18”

mice [11] = assay: Kidney Toxicity Determined by Blood Examination (3); format: in vivo; conditions: mouse serum
Protocol: as §2, with “Thereafter,” for “After lapse of one day from the administration,”

male mice SPF-ICR [12] = assay: Acute Toxicity Test (3), intraperitoneal; format: in vivo; conditions: for mice died: 8 mice per group, 14 days
From the text: One group consisted of 8 mice.

male mice SPF-ICR [13] = assay: Acute Toxicity Test (4), oral; format: in vivo; conditions: oral 1.0, 1.5 and 2.0 g/kg, 8 mice per group, 14 days
Protocol: To male mice SPF-ICR five weeks old (supplied by Japan Charles River Co.) was orally administered OPQ at dosages of 1.0, 1.5 and 2.0 g per kg of body weight of mouse, respectively and they were bred for 14 days at 25° C. One group consisted of 8 mice. No mice died.

C=CCOC(=O)c1cc(C(=O)OCC=C)c2c(n1)C(=O)C(=O)c1cc(C(=O)OCC=C)[nH]c1-2 [PQQ triallyl ester]
mice died (male mice SPF-ICR [1]): no mice died
glucose in urine (mice [2]; 20 mg/kg): -
glucose in urine (mice [2]; 40 mg/kg): -
glucose in urine (mice [2]; 80 mg/kg): -
glucose in urine (mice [2]; 160 mg/kg): -
glucose in urine (mice [2]; 200 mg/kg): -
glucose in urine (mice [2]; 400 mg/kg): -
glucose in urine (mice [2]; 1000 mg/kg): -
mice died (male mice SPF-ICR [3]; i.p. 200 mg/kg or less): No mice died
mice died (male mice SPF-ICR [3]; i.p. 400 mg/kg): three mice died
mice died (male mice SPF-ICR [3]; i.p. 800 mg/kg): eight mice all died
LD50 at 336 h [4]: ~500 mg/kg
Membrane permeation constant [5]: 2.42 ± 0.60 10 ^-7 cm^2 · sec^-1
IC50 ([6]; Example 3, Table 8): 42 µM
Judgement 1 (No haze was seen in crystal lens), eggs [7]: 2/5
Judgement 2 (Slight opaque ring was seen in crystal lens), eggs [7]: 1/5
Judgement 3 (Clear ring of white haze was seen in crystal lens), eggs [7]: 1/5
Judgement 4 ~ 5 (white haze of pinhole size in nucleus ~ whole nucleus hazed in white), eggs [7]: 1/5
contents of glucose, urea nitrogen and creatinine in serum (mice [8]; mice, summary of Table 3): nearly the same as those in the case of administration of no compounds
Creatinine (mice [8]; 40 mg/kg): 0.3 ± 0.1 mg/dL
Glucose (mice [8]; 40 mg/kg): 42 ± 6 mg/dL
Urea nitrogen (mice [8]; 40 mg/kg): 11 ± 4 mg/dL
Creatinine (mice [8]; 90 mg/kg): 0.2 ± 0.1 mg/dL
Glucose (mice [8]; 90 mg/kg): 47 ± 15 mg/dL
Urea nitrogen (mice [8]; 90 mg/kg): 12 ± 3 mg/dL
Creatinine (mice [8]; 160 mg/kg): 0.1 ± 0.1 mg/dL
Glucose (mice [8]; 160 mg/kg): 59 ± 16 mg/dL
Urea nitrogen (mice [8]; 160 mg/kg): 10 ± 1 mg/dL
Creatinine (mice [8]; 200 mg/kg): 0.1 ± 0.1 mg/dL
Glucose (mice [8]; 200 mg/kg): 76 ± 6 mg/dL
Urea nitrogen (mice [8]; 200 mg/kg): 9 ± 1 mg/dL
kidney toxicity (mice [8]; mouse, in vivo): kidney toxicity was not seen
IC50 ([9]; Example 1, Table 6): 12.4 nM

COC(=O)c1cc(C(=O)OC)c2c(n1)C(=O)C(=O)c1cc(C(=O)OC)[nH]c1-2 [PQQ trimethyl ester]
Creatinine (mice [10]; 150 mg/kg): 0.85 ± 0.08 mg/dL
Glucose (mice [10]; 150 mg/kg): 154 ± 23 mg/dL
Urea nitrogen (mice [10]; 150 mg/kg): 23 ± 2 mg/dL
Creatinine (mice [10]; 400 mg/kg): 0.73 ± 0.05 mg/dL
Glucose (mice [10]; 400 mg/kg): 117 ± 21 mg/dL
Urea nitrogen (mice [10]; 400 mg/kg): 20 ± 2 mg/dL
Creatinine (mice [10]; 1000 mg/kg): 0.73 ± 0.05 mg/dL
Glucose (mice [10]; 1000 mg/kg): 125 ± 17 mg/dL
Urea nitrogen (mice [10]; 1000 mg/kg): 17 ± 4 mg/dL
kidney toxicity (mice [10]; mouse, in vivo, 1000 mg/kg): No kidney toxicity was recognized
mice died (male mice SPF-ICR [1]): no mice died
glucose detected in urine (mice [2]): no glucose was detected in urine
glucose in urine (mice [2]; 20 mg/kg): -
glucose in urine (mice [2]; 40 mg/kg): -
glucose in urine (mice [2]; 80 mg/kg): -
glucose in urine (mice [2]; 160 mg/kg): -
glucose in urine (mice [2]; 200 mg/kg): -
glucose in urine (mice [2]; 400 mg/kg): -
glucose in urine (mice [2]; 1000 mg/kg): -
Membrane permeation constant [5]: 1.41 ± 0.48 10 ^-7 cm^2 · sec^-1
membrane permeation constant relative to that of PQQ.2Na [5]: about twice
Judgement 1 (No haze was seen in crystal lens), eggs [7]: 1/5
Judgement 3 (Clear ring of white haze was seen in crystal lens), eggs [7]: 1/5
Judgement 4 ~ 5 (white haze of pinhole size in nucleus ~ whole nucleus hazed in white), eggs [7]: 3/5
IC50 ([9]; Example 1, Table 6): 18.5 nM

O=C(O)c1cc(C(=O)O)c2c(n1)c1ncoc1c1cc(C(=O)O)[nH]c12 [OPQ, 2,8,10-tricarboxy-1-H-oxazo[5,4-h]-pyrrolo[2,3-f]quinoline]
mice died (male mice SPF-ICR [1]): no mice died
Creatinine (mice [11]; i.p. 150 mg/kg): 0.75 ± 0.05 mg/dL
Glucose (mice [11]; i.p. 150 mg/kg): 106 ± 21 mg/dL
Urea nitrogen (mice [11]; i.p. 150 mg/kg): 32 ± 3 mg/dL
Creatinine (mice [11]; i.p. 300 mg/kg): 0.78 ± 0.04 mg/dL
Glucose (mice [11]; i.p. 300 mg/kg): 80 ± 15 mg/dL
Urea nitrogen (mice [11]; i.p. 300 mg/kg): 29 ± 2 mg/dL
Creatinine (mice [11]; i.p. 400 mg/kg): 0.78 ± 0.04 mg/dL
Glucose (mice [11]; i.p. 400 mg/kg): 104 ± 18 mg/dL
Urea nitrogen (mice [11]; i.p. 400 mg/kg): 29 ± 3 mg/dL
Creatinine (mice [11]; i.p. 600 mg/kg): 0.78 ± 0.11 mg/dL
Glucose (mice [11]; i.p. 600 mg/kg): 74 ± 11 mg/dL
Urea nitrogen (mice [11]; i.p. 600 mg/kg): 32 ± 5 mg/dL
glucose in urine (mice [2]; 20 mg/kg): -
glucose in urine (mice [2]; 40 mg/kg): -
glucose in urine (mice [2]; 80 mg/kg): -
glucose in urine (mice [2]; 160 mg/kg): -
glucose in urine (mice [2]; 200 mg/kg): -
glucose in urine (mice [2]; 400 mg/kg): -
glucose in urine (mice [2]; 800 mg/kg): -
glucose in urine (mice [2]; 1000 mg/kg): -
glucose in urine (mice [2]; 1200 mg/kg): -
mice died (male mice SPF-ICR [12]; i.p. 0.1-0.4 g/kg): No mice died
mice died (male mice SPF-ICR [12]; i.p. 0.8 g/kg): two mice died
mice died (male mice SPF-ICR [12]; i.p. 1.0 g/kg): three mice died
mice died (male mice SPF-ICR [12]; i.p. 1.2 g/kg): six mice died
LD50 (male mice SPF-ICR [12]; mouse, in vivo, ip, 336 h): about 1.0 g/kg-mouse
mice died (male mice SPF-ICR [13]): No mice died
IC50 ([6]; Example 4, Table 9): 198 µM
Judgement 2 (Slight opaque ring was seen in crystal lens), eggs [7]: 1/5
Judgement 3 (Clear ring of white haze was seen in crystal lens), eggs [7]: 1/5
Judgement 4 ~ 5 (white haze of pinhole size in nucleus ~ whole nucleus hazed in white), eggs [7]: 3/5
Creatinine (mice [8]; 40 mg/kg): 0.70 ± 0.10 mg/dL
Glucose (mice [8]; 40 mg/kg): 90 ± 18 mg/dL
Urea nitrogen (mice [8]; 40 mg/kg): 25 ± 3 mg/dL
Creatinine (mice [8]; 80 mg/kg): 0.80 ± 0.10 mg/dL
Glucose (mice [8]; 80 mg/kg): 86 ± 10 mg/dL
Urea nitrogen (mice [8]; 80 mg/kg): 23 ± 4 mg/dL
Creatinine (mice [8]; 160 mg/kg): 0.73 ± 0.09 mg/dL
Glucose (mice [8]; 160 mg/kg): 90 ± 23 mg/dL
Urea nitrogen (mice [8]; 160 mg/kg): 27 ± 6 mg/dL
Creatinine (mice [8]; 200 mg/kg): 0.81 ± 0.08 mg/dL
Glucose (mice [8]; 200 mg/kg): 85 ± 24 mg/dL
Urea nitrogen (mice [8]; 200 mg/kg): 28 ± 4 mg/dL
IC50 ([9]; Example 2, Table 7): 1220 nM
